According to PubChem BioAssay AID1996:
Converted amounts (≈) assume the structure as drawn.

Conditions: buffer; pH 7.4; 200.0 µM

Q: Which solubility kinetic does the source give for `Cc1ccc2cc3cc(C(=O)NC4CCCCC4)oc3nc2c1` here?
A: 0.7 µg/mL (≈ 2.27 µM)

Q: For `COc1ccccc1NC(=O)NNC(=O)CCN1CCOCC1`, which solubility kinetic is on record?
A: > 48.4 µg/mL

Q: With `CC(=O)NC(=S)Nc1ccc(NC(=O)c2cccnc2)cc1` as the compound, how does the solubility kinetic read?
A: 10.2 µg/mL (≈ 32.4 µM)

Q: For `COc1ccc(/C=C/C(=O)NCCN2CCOCC2)cc1OC`, which solubility kinetic is on record?
A: > 48.1 µg/mL

Q: Which solubility kinetic does the source give for `CN1CCC(CN)(N2CCN(c3ccccc3)CC2)CC1` here?
A: 41.9 µg/mL (≈ 145 µM)

Q: With `O=C(NCC1CCCO1)c1cncc(Br)c1` (stereo unspecified) as the compound, how does the solubility kinetic read?
A: > 42.8 µg/mL

Q: With `COc1ccc(CNC(=O)COC(=O)c2ccc(S(=O)(=O)NCc3ccco3)cc2)cc1` as the compound, how does the solubility kinetic read?
A: 8 µg/mL (≈ 17.4 µM)

Q: Which solubility kinetic does the source give for `CCc1ccc(NC(=O)COc2ccc3c(c2)OCO3)cc1` here?
A: 4.8 µg/mL (≈ 16 µM)

Q: For `Cc1ccc(CC(=O)NCCc2ccc(S(N)(=O)=O)cc2)cc1`, which solubility kinetic is on record?
A: > 49.9 µg/mL

Q: With `CCN(CC(=O)NCc1cccs1)CC(=O)Nc1ccc(C(N)=O)cc1` as the compound, how does the solubility kinetic read?
A: > 56.2 µg/mL

Q: For `CC(=O)C1=C(O)C(=O)N(Cc2ccccc2)C1c1cccc([N+](=O)[O-])c1` (stereo unspecified), which solubility kinetic is on record?
A: > 52.9 µg/mL

Q: With `C=CC[n+]1c(C)csc1Nc1cccc(Br)c1.[Br-]` as the compound, how does the solubility kinetic read?
A: 3.3 µg/mL

Q: Which solubility kinetic does the source give for `CCC(=O)N(Cc1cc(=O)[nH]c2ccccc12)c1ccc(OC)cc1` here?
A: 47.1 µg/mL (≈ 140 µM)

Q: For `O=C1Nc2ccc(S(=O)(=O)NCCCO)c3cccc1c23`, which solubility kinetic is on record?
A: > 46 µg/mL

Q: With `CC1CCCN(C(=O)CCCNC(=O)c2ccc(Cl)cc2)C1` (stereo unspecified) as the compound, how does the solubility kinetic read?
A: > 48.4 µg/mL

Q: With `CN/C(=C/[N+](=O)[O-])NCCSCc1ccc(CN(C)C)o1.Cl` as the compound, how does the solubility kinetic read?
A: 52.4 µg/mL

Q: With `COc1cc(OC)c(C(=O)OCC(=O)NC2CCCC2)cc1OC` as the compound, how does the solubility kinetic read?
A: > 50.6 µg/mL

Q: For `Cc1cc(Oc2ccc(N)cn2)cc(C)c1Cl`, which solubility kinetic is on record?
A: 27.6 µg/mL (≈ 111 µM)

Q: Which solubility kinetic does the source give for `CCOC(=O)C1(C)Oc2cccnc2NC1=O` (stereo unspecified) here?
A: 35.2 µg/mL (≈ 149 µM)

Q: With `Cc1cccc(N(Cc2ccccc2)C(=O)c2ccccc2F)c1` as the compound, how does the solubility kinetic read?
A: 11.5 µg/mL (≈ 36 µM)

Q: Which solubility kinetic does the source give for `Cc1nc(C)c(C(=O)Nc2cccc(F)c2)s1` here?
A: > 37.5 µg/mL

Q: With `O=C(O)/C=C/c1ccccc1[N+](=O)[O-]` as the compound, how does the solubility kinetic read?
A: > 29 µg/mL

Q: For `CC(C)(C)c1csc(Sc2ncccc2[N+](=O)[O-])n1`, which solubility kinetic is on record?
A: 1.7 µg/mL (≈ 5.76 µM)

Q: Which solubility kinetic does the source give for `CSc1cccc(NC(=O)c2cccc3cccnc23)c1` here?
A: 5.7 µg/mL (≈ 19.4 µM)

Q: With `COc1ccc(-c2nc(CN3CCN(c4ncccn4)CC3)c(C)o2)cc1C` as the compound, how does the solubility kinetic read?
A: 39 µg/mL (≈ 103 µM)

Q: Which solubility kinetic does the source give for `c1ccc2nc3c(nc2c1)OCC1CCCCN31` (stereo unspecified) here?
A: 23.5 µg/mL (≈ 97.4 µM)

Q: With `COP(=O)(OC)C(Nc1ccc([N+](=O)[O-])cc1)c1ccccc1` (stereo unspecified) as the compound, how does the solubility kinetic read?
A: > 50.4 µg/mL

Q: For `O=C(c1cc2cc(F)ccc2[nH]1)N1CCc2ccccc21`, which solubility kinetic is on record?
A: 1.4 µg/mL (≈ 4.99 µM)

Q: Which solubility kinetic does the source give for `Cc1ncc([N+](=O)[O-])n1S(=O)(=O)c1cc(Cl)ccc1Cl` here?
A: 40.3 µg/mL (≈ 120 µM)

Q: Which solubility kinetic does the source give for `O=C(Nc1ncc([N+](=O)[O-])s1)c1cccs1` here?
A: 37.2 µg/mL (≈ 146 µM)

Q: With `Cc1ccc2nc(-c3ccccc3C)oc(=O)c2c1` as the compound, how does the solubility kinetic read?
A: < 0.5 µg/mL

Q: Which solubility kinetic does the source give for `Cc1cc(C)cc(NC(=O)C2CCN(C(=O)c3cccs3)CC2)c1` here?
A: > 51.4 µg/mL

Q: With `c1ccc(CCCc2nc(-c3cccnc3)no2)cc1` as the compound, how does the solubility kinetic read?
A: 30.5 µg/mL (≈ 115 µM)

Q: For `N#Cc1c(Cl)nc2c(c1C#N)CCCC2`, which solubility kinetic is on record?
A: > 32.6 µg/mL

Q: With `COC(=O)c1cc(=O)n(-c2c(Cl)cc(C(F)(F)F)cc2Cl)[nH]1` as the compound, how does the solubility kinetic read?
A: > 53.3 µg/mL

Q: For `CC1CCCC(NC(=O)c2cccs2)C1C` (stereo unspecified), which solubility kinetic is on record?
A: 23 µg/mL (≈ 96.9 µM)

Q: With `S=C(NCCc1c[nH]c2ccccc12)NC1CC1` as the compound, how does the solubility kinetic read?
A: > 38.9 µg/mL

Q: Which solubility kinetic does the source give for `O=C(NCc1ccco1)Nc1ccc([N+](=O)[O-])cc1` here?
A: 16.5 µg/mL (≈ 63.2 µM)

Q: With `CCC(O)c1nc2ccccc2n1CCc1ccccc1` (stereo unspecified) as the compound, how does the solubility kinetic read?
A: 17.1 µg/mL (≈ 61 µM)

Q: With `CCOC(=O)Nc1ccc2c(c1)N(C(=O)CCN1CCOCC1)c1ccccc1S2` as the compound, how does the solubility kinetic read?
A: > 64.1 µg/mL

Q: For `COc1cccc(NC(=O)c2cc3ccccc3cc2OC)c1`, which solubility kinetic is on record?
A: 2.8 µg/mL (≈ 9.11 µM)

Q: Which solubility kinetic does the source give for `CN(C(=O)C1CCC(=O)N(C2CC2)C1)C1CCCCC1` (stereo unspecified) here?
A: > 41.8 µg/mL

Q: Which solubility kinetic does the source give for `CC(=O)N1CCN(C(=O)CNC(=O)c2ccc(Br)o2)CC1` here?
A: > 53.7 µg/mL

Q: With `O=c1nc(-c2ccccc2)c2cc(Br)ccc2[nH]1` as the compound, how does the solubility kinetic read?
A: 1.8 µg/mL (≈ 5.98 µM)

Q: With `CC(C)[C@H](NC(=O)c1ccccc1Cl)C(=O)OCC(=O)NCc1ccc2c(c1)OCO2` as the compound, how does the solubility kinetic read?
A: > 67 µg/mL

Q: Which solubility kinetic does the source give for `O=C(Nc1cccnc1)OCc1ccccc1` here?
A: 23 µg/mL (≈ 101 µM)

Q: With `COc1ccc(OC)c2sc(Cl)nc12` as the compound, how does the solubility kinetic read?
A: 18.4 µg/mL (≈ 80.1 µM)

Q: Which solubility kinetic does the source give for `O=C(COC(=O)c1cccc(F)c1)NC(=O)NC1CCCC1` here?
A: 41.4 µg/mL (≈ 134 µM)

Q: Which solubility kinetic does the source give for `CNS(=O)(=O)c1cccc(C(=O)OCC(=O)Nc2nc(OC)cc(OC)n2)c1` here?
A: 15 µg/mL (≈ 36.5 µM)

Q: Which solubility kinetic does the source give for `CCc1ccc(N2C(=O)CN(Cc3cccs3)C2=S)cc1` here?
A: < 0.3 µg/mL

Q: Which solubility kinetic does the source give for `O=C(Cc1cccs1)NC1CCCC1` here?
A: > 31.4 µg/mL

Q: With `CCc1cc2c(=O)oc(-c3ccccc3F)nc2s1` as the compound, how does the solubility kinetic read?
A: 0.7 µg/mL (≈ 2.54 µM)

Q: With `COC(=O)c1sccc1NC(=O)c1cccs1` as the compound, how does the solubility kinetic read?
A: < 0.6 µg/mL

Q: With `COc1ccc(C(=O)OCc2c(C)noc2C)cc1` as the compound, how does the solubility kinetic read?
A: > 39.2 µg/mL

Q: For `O=C(O)CSC(=S)N1CC2CC(C1)c1cccc(=O)n1C2` (stereo unspecified), which solubility kinetic is on record?
A: > 48.7 µg/mL

Q: With `Cn1nc(C(=O)NC2CCCC2)c2ccccc2c1=O` as the compound, how does the solubility kinetic read?
A: > 40.7 µg/mL

Q: With `COc1cc([N+](=O)[O-])ccc1NC(=O)CSc1ccccn1` as the compound, how does the solubility kinetic read?
A: 0.5 µg/mL (≈ 1.57 µM)

Q: For `Cc1c(F)cccc1NC(=O)c1ccc2c(c1)CCN2S(C)(=O)=O`, which solubility kinetic is on record?
A: 4.4 µg/mL (≈ 12.6 µM)

Q: With `Cc1ccc(C)c(OCCCN2CCc3ccccc3C2)c1.Cl` as the compound, how does the solubility kinetic read?
A: 14 µg/mL

Q: With `O=C(O)CN1C(=O)c2cccc3c(Br)ccc1c23` as the compound, how does the solubility kinetic read?
A: > 45.9 µg/mL

Q: For `COc1ccc(/C=C2/C(=O)ON=C2C)cc1Br`, which solubility kinetic is on record?
A: 14 µg/mL (≈ 47.3 µM)

Q: For `COc1ccc2nc(C)cc(SCC(=O)N3CCCCC3)c2c1`, which solubility kinetic is on record?
A: > 49.6 µg/mL

Q: Which solubility kinetic does the source give for `CCOC(=O)c1c(C)[nH]c(C(=O)N2CCC(C(=O)OCC)CC2)c1C` here?
A: > 52.6 µg/mL

Q: Which solubility kinetic does the source give for `O=c1[nH]c(=S)n(C2CCCCC2)c(O)c1C=NCCN1CCOCC1` here?
A: 53 µg/mL (≈ 145 µM)

Q: For `Cc1cccc(C)c1NC(=S)N1CCCN(C)CC1`, which solubility kinetic is on record?
A: > 41.6 µg/mL

Q: With `O=C(c1ccc(F)cc1)C1CCN(C(=O)c2c(F)cccc2F)CC1` as the compound, how does the solubility kinetic read?
A: > 52.1 µg/mL

Q: For `COc1cccc(-n2cnc3sc4c(c3c2=O)CCC4)c1`, which solubility kinetic is on record?
A: 5.9 µg/mL (≈ 19.8 µM)

Q: For `CCCCOc1ccccc1C1NC(=O)CCC1[N+](=O)[O-]` (stereo unspecified), which solubility kinetic is on record?
A: > 43.9 µg/mL

Q: With `COc1ccc(-c2onc(C)c2-c2ccc3c(c2)OCCO3)c(O)c1` as the compound, how does the solubility kinetic read?
A: 2.6 µg/mL (≈ 7.66 µM)

Q: For `Cc1ccc(-c2c[n+]3c(n2-c2ccccc2)CCC3)cc1.[Br-]`, which solubility kinetic is on record?
A: > 53.3 µg/mL

Q: For `O=C(CCNC(=O)c1ccccc1)Nc1cccnc1`, which solubility kinetic is on record?
A: > 40.4 µg/mL

Q: Which solubility kinetic does the source give for `O=C(NCc1ccccc1Cl)NC(=O)c1csc([N+](=O)[O-])c1` here?
A: < 0.2 µg/mL

Q: Which solubility kinetic does the source give for `COc1ccc(OC)c2sc(N(CCN(C)C)C(=O)c3ccc4ccccc4c3)nc12.Cl` here?
A: 8.6 µg/mL

Q: Which solubility kinetic does the source give for `COc1ccc(CNC2CCN(Cc3ccccc3)CC2)cc1` here?
A: > 46.6 µg/mL

Q: For `O=C(O)c1cc2n(n1)C(C(F)(F)F)CC(C1CC1)N2` (stereo unspecified), which solubility kinetic is on record?
A: > 41.3 µg/mL

Q: For `Cc1ccc(NC(=O)Cc2c(O)c3ccccc3[nH]c2=O)c(C)c1`, which solubility kinetic is on record?
A: 23 µg/mL (≈ 71.3 µM)

Q: For `O=C(CC(Cc1ccccc1)C(=O)O)Nc1ccc(F)cc1` (stereo unspecified), which solubility kinetic is on record?
A: > 45.2 µg/mL

Q: With `COc1ccc(C(=O)COC(=O)c2c(C)noc2C)cc1Cl` as the compound, how does the solubility kinetic read?
A: 2.9 µg/mL (≈ 8.96 µM)

Q: With `C/C(=N\O)C(C)(C)Nc1ccc(F)cc1` as the compound, how does the solubility kinetic read?
A: > 31.5 µg/mL

Q: Which solubility kinetic does the source give for `Cn1c(N)c(C(=O)COC(=O)Cc2ccccc2F)c(=O)n(C)c1=O` here?
A: 24.2 µg/mL (≈ 69.3 µM)

Q: With `O=C(O)CCCn1c(=O)c2cccn2c2ccc(F)cc21` as the compound, how does the solubility kinetic read?
A: > 43.2 µg/mL

Q: For `Cc1ccccc1OCC(=O)OCC(=O)NCC1CCCCC1`, which solubility kinetic is on record?
A: 7.6 µg/mL (≈ 23.8 µM)

Q: With `CCCC(C)NC(=S)Nc1cc(C)cc(C)c1` (stereo unspecified) as the compound, how does the solubility kinetic read?
A: 25.2 µg/mL (≈ 101 µM)

Q: With `O=C(O)CCCc1c(-[n+]2ccccc2)[nH]c2ccccc12.[Cl-]` as the compound, how does the solubility kinetic read?
A: > 47.5 µg/mL

Q: For `COc1ccc(OC)c(NC(=O)Cc2cccs2)c1`, which solubility kinetic is on record?
A: 30.4 µg/mL (≈ 110 µM)

Q: For `Cc1ccc(C(=O)Nc2ccc(Nc3ccccc3)cc2)c(Cl)c1`, which solubility kinetic is on record?
A: < 0.4 µg/mL
